# Data: US5629011A, “Composition for nasal administration” (priority 1992, dated 1997)
# Values joined by “and” are separate entries in the source; they are usually repeats but may differ in a detail not shown here. Equal values may be shown once.
# Assays:
# [1] = Pharmacokinetic parameters after nasal administration to sheep; details: for Vd: Apparent Volume of Distribution; for AUC at 5 h: Area Under Curve; for half-life: T1/2, nasal 0.15 mg/kg with 0.5% chitosan
# Procedure: (§1) The chitosan concentration was 0.5%. The solution was administered into the sheep nostril using a simple spray pump device followed by serial blood sampling. […] Control experiments were conducted using i.v. dosage of the glucuronide.
# (§2) Blood samples (10 ml) were taken at the following times.
# (§3) The area under the curve (AUC) was calculated over 0-300 minutes using the linear trapezoidal method. […] Clearance was calculated by dividing the dose by the AUC, and the volume of distribution was calculated by dividing the clearance by the elimination rate constant. The bioavailability was calculated by dividing the mean AUC for nasal administration by the normalised mean AUC after intravenous administration.
# [2] = in vivo; details: sheep
# Procedure: as §1, §2
# Plasma was separated by centrifugation soon after sampling and the plasma samples (approximately 5 ml) were stored at -80° C. prior to analysis.
# Biomed. Appl. 230, 427. […] The limit of quantification of the method is 1 ng/ml for a 0.5 ml plasma sample and the assay is linear over the range of 1 to 1200 ng/ml drug concentration.
# [3] = Pharmacokinetic parameters after intravenous administration to sheep; details: for Vd: Apparent Volume of Distibution; for AUC at 5 h: Area Under Curve; for half-life: T1/2, i.v. 0.015 mg/kg
# Procedure: as §1, §2, §3
# [4] = cited from earlier work; for unwanted side effects: metabolites compared with morphine, for morphine: therapeutic use
# [5] = intracerebroventricular, mice; cited from earlier work
# [6] = subcutaneous injection, rat; cited from earlier work
# [7] = nasal 0.15 mg/kg with 0.5% chitosan, individual sheep IF, JF, KF, 0.15 mg/kg
# [8] = 0.15 mg/kg, morphine-6-glucuronide concentration (plasma)
# [9] = iv, 0.015 mg/kg, morphine-6-glucuronide concentration (plasma)
# [10] = i.v. 0.015 mg/kg, individual sheep NF, OF, PF
smiles,measurement,setting,value
CN1CC[C@]23c4c5ccc(O)c4O[C@H]2[C@@H](O[C@@H]2O[C@H](C(=O)O)[C@@H](O)[C@H](O)[C@H]2O)C=C[C@H]3[C@H]1C5 [morphine-6-glucuronide],bioavailability,"[1]; nasal 0.15 mg/kg with 0.5% chitosan, vs normalised mean i.v. AUC, individual sheep IF, JF, KF, 0.15 mg/kg",37.3% and 26.6%
same,Area Under Curve,"[1]; nasal 0.15 mg/kg with 0.5% chitosan, 0-300 min, individual sheep IF, JF, KF, 0.15 mg/kg, 300 min",10631 ng·min/mL and 7581 ng·min/mL
same,Apparent Volume of Distribution,"[1]; nasal 0.15 mg/kg with 0.5% chitosan, corrected for bioavailable dose, individual sheep IF, JF, KF, 0.15 mg/kg",0.31 lkg^-1
same,clearance,"[1]; nasal 0.15 mg/kg with 0.5% chitosan, corrected for bioavailable dose, mean of 3 sheep",5.3 mL/min/kg
same,Cmax,[1]; [7],165 ng/mL and 110 ng/mL
same,T1/2,[1]; [7],41 min and 42 min
same,Tmax,[1]; [7],10 min
same,clearance,"[1]; sheep, plasma, 0.15 mg/kg",5.3 mL/min/kg
same,Vd,"[1]; sheep, plasma, 0.15 mg/kg, nasal 0.15 mg/kg with 0.5% chitosan, corrected for bioavailable dose, individual sheep IF, JF, KF",0.37 L/kg
same,Vd,"[1]; sheep, plasma, 0.15 mg/kg, nasal 0.15 mg/kg with 0.5% chitosan, corrected for bioavailable dose, mean of 3 sheep",0.33 L/kg
same,AUC at 5 h,"[1]; sheep, plasma, 0.15 mg/kg, nasal 0.15 mg/kg with 0.5% chitosan, 0-300 min, individual sheep IF, JF, KF",156 ng·h/mL
same,AUC at 5 h,"[1]; sheep, plasma, 0.15 mg/kg, nasal 0.15 mg/kg with 0.5% chitosan, 0-300 min, mean of 3 sheep",153 ng·h/mL
same,bioavailability,"[1]; sheep, plasma, 0.15 mg/kg, Bioavailability, nasal 0.15 mg/kg with 0.5% chitosan, vs normalised mean i.v. AUC, individual sheep IF, JF, KF",32.9%
same,Cmax,"[1]; sheep, plasma, 0.15 mg/kg, Cmax, nasal 0.15 mg/kg with 0.5% chitosan, individual sheep IF, JF, KF",121 ng/mL
same,Cmax,"[1]; sheep, plasma, 0.15 mg/kg, Cmax, nasal 0.15 mg/kg with 0.5% chitosan, mean of 3 sheep",132 ng/mL
same,half-life,"[1]; sheep, plasma, 0.15 mg/kg, individual sheep IF, JF, KF",51 min
same,half-life,"[1]; sheep, plasma, 0.15 mg/kg, mean of 3 sheep",45 min
same,Tmax,"[1]; sheep, plasma, 0.15 mg/kg, Tmax, nasal 0.15 mg/kg with 0.5% chitosan, individual sheep IF, JF, KF",15 min
same,Tmax,"[1]; sheep, plasma, 0.15 mg/kg, Tmax, nasal 0.15 mg/kg with 0.5% chitosan, mean of 3 sheep",13 min
same,bioavailability,"[1]; sheep, plasma, 0.15 mg/kg, mean nasal bioavailability, nasal 0.15 mg/kg with 0.5% chitosan, vs i.v. AUC normalised to 0.15 mg/kg, mean, n=3",32.3%
same,concentration at 10 min,[2]; [8],89.1 ng/mL
same,concentration at 0.25 h,[2]; [8],121 ng/mL
same,concentration at 20 min,[2]; [8],102 ng/mL
same,concentration at 0.5 h,[2]; [8],107 ng/mL
same,concentration at 0.75 h,[2]; [8],108 ng/mL
same,concentration at 1 h,[2]; [8],66.7 ng/mL
same,concentration at 1.5 h,[2]; [8],41.1 ng/mL
same,concentration at 2 h,[2]; [8],21.9 ng/mL
same,concentration at 3 h,[2]; [8],10.2 ng/mL
same,concentration at 6 h,[2]; [8],< 1 ng/mL
same,morphine-6-glucuronide concentration (plasma),"[2]; iv, 0.015 mg/kg, 2.5 h",3.5 ng/mL
same,concentration at 2 min,[2]; [9],43.8 ng/mL
same,concentration at 5 min,[2]; [9],40.3 ng/mL
same,concentration at 10 min,[2]; [9],36.1 ng/mL
same,concentration at 0.25 h,[2]; [9],28.6 ng/mL
same,concentration at 20 min,[2]; [9],23.2 ng/mL
same,concentration at 0.5 h,[2]; [9],22.5 ng/mL
same,concentration at 1.5 h,[2]; [9],9.4 ng/mL
same,concentration at 3 h,[2]; [9],2 ng/mL
same,concentration at 4 h,[2]; [9],< 1 ng/mL
same,concentration at 5 h,[2]; [9],< 1 ng/mL
same,concentration at 6 h,[2]; [9],< 1 ng/mL
same,Area Under Curve,"[3]; i.v. 0.015 mg/kg, 0-300 min, individual sheep NF, OF, PF, 300 min",3819 ng·min/mL and 2560 ng·min/mL
same,Apparent Volume of Distibution,[3]; [10],0.30 lkg^-1 and 0.35 lkg^-1
same,Cmax,[3]; [10],55 ng/mL and 50 ng/mL
same,T1/2,[3]; [10],53 min and 42 min
same,Tmax,[3]; [10],2 min and 5 min
same,clearance,[3]; [10],3.9 mL/min/kg and 5.9 mL/min/kg
same,Vd,"[3]; sheep, plasma, iv, 0.015 mg/kg, i.v. 0.015 mg/kg, individual sheep NF, OF, PF",0.58 L/kg
same,Vd,"[3]; sheep, plasma, iv, 0.015 mg/kg, i.v. 0.015 mg/kg, mean of 3 sheep",0.41 L/kg
same,AUC at 5 h,"[3]; sheep, plasma, iv, 0.015 mg/kg, i.v. 0.015 mg/kg, 0-300 min, individual sheep NF, OF, PF",36.1 ng·h/mL
same,AUC at 5 h,"[3]; sheep, plasma, iv, 0.015 mg/kg, i.v. 0.015 mg/kg, 0-300 min, mean of 3 sheep",47.5 ng·h/mL
same,clearance,"[3]; sheep, plasma, iv, 0.015 mg/kg, Clearance, i.v. 0.015 mg/kg, individual sheep NF, OF, PF",6.9 mL/min/kg
same,clearance,"[3]; sheep, plasma, iv, 0.015 mg/kg, Clearance, i.v. 0.015 mg/kg, mean of 3 sheep",5.6 mL/min/kg
same,Cmax,"[3]; sheep, plasma, iv, 0.015 mg/kg, Cmax, i.v. 0.015 mg/kg, individual sheep NF, OF, PF",44 ng/mL
same,Cmax,"[3]; sheep, plasma, iv, 0.015 mg/kg, Cmax, i.v. 0.015 mg/kg, mean of 3 sheep",50 ng/mL
same,half-life,"[3]; sheep, plasma, iv, 0.015 mg/kg, individual sheep NF, OF, PF",58 min
same,half-life,"[3]; sheep, plasma, iv, 0.015 mg/kg, mean of 3 sheep",51 min
same,Tmax,"[3]; sheep, plasma, iv, 0.015 mg/kg, Tmax, i.v. 0.015 mg/kg, mean of 3 sheep",3 min
same,biological half-life compared with morphine,[4],may also have a longer biological half-life
same,unwanted side effects,[4],less likely to have the unwanted side effects
CN1CC[C@]23c4c5ccc(O)c4O[C@H]2[C@@H](OS(=O)(=O)O)C=C[C@H]3[C@H]1C5 [morphine-6-sulphate],unwanted side effects,[4],less likely to have the unwanted side effects
same,analgesic potency compared with morphine,[5],more potent analgesic than morphine
same,antinociceptive activity,[6],potent antinociceptive activity
